Experimental data from patent publication US8394967B2, “Antioxidant inflammation modulators: C-17 homologated oleanolic acid derivatives” (Reata Pharmaceuticals, Inc., priority 2008, dated 2013).
Where two headings read alike, the source gives them in different places.

Tests used:
[1] = tested on: NO production in RAW264.7 macrophages; assay: Inhibition of NO production in IFNγ-treated RAW264.7 macrophages (Griess reagent); format: cell-based, mouse; settings: then 20 ng/ml IFNγ for 24 hours
Protocol: (§1) FIGS. 1-4, 6 and 8. Inhibition of NO Production. RAW264.7 macrophages were pre-treated with DMSO or drugs at various concentrations (nM) for 2 hours, then treated with 20 ng/ml IFNγ for 24 hours. NO concentration in media was determined using a Griess reagent system; cell viability was determined using WST-1 reagent.
(§2) Nitric Oxide production and cell viability. RAW264.7 macrophages were pre-treated with DMSO or drugs for 2 hours, then treated with recombinant mouse IFNγ (Sigma) for 24 hours. NO concentration in media was determined using the Griess reagent system (Promega). Cell viability was determined using WST-1 reagent (Roche).

[2] = tested on: RAW264.7 macrophages; assay: Cell viability of RAW264.7 macrophages (WST-1 reagent); format: cell-based, mouse; settings: cell viability, RAW264.7, 20 ng/ml IFNγ 24 hours, WST-1 reagent, read-out: RAW264.7 (20 ng/ml IFNγ) WST-1 IC50
Protocol: as §1, §2

[3] = Mus musculus, RAW264.7, RAW264.7 macrophages pre-treated 2 hours

Row | IC50 [1, 3] | IC50 ([1]; RAW264.7 macrophages pre-treated 2 hours) | Structure (SMILES) | IC50 ([2]; Mus musculus, RAW264.7, 24 h) | IC50 [2]
1 | > 200 nM | – | CC1(C)CC[C@]2(COP(=O)(O)O)CC[C@]3(C)[C@H](C(=O)C[C@@H]4[C@@]5(C)C=C(C#N)C(=O)C(C)(C)[C@@H]5CC[C@]43C)[C@@H]2C1 [Compound 63269, ((4aS,6aR,6bR,8aR,12aR,12bR,14aR,14bS)-11-cyano-2,2,6a,6b,9,9,12a-heptamethyl-10,14-dioxo-1,2,3,4,4a,5,6,6a,6b,7,8,8a,9,10,12a,12b,13,14,14a,14b-icosahydropicen-4a-yl)methyl dihydrogen phosphate] | > 200 nM | –
2 | ~80 nM | – | CC1(C)CC[C@]2(CNCC(F)(F)F)CC[C@]3(C)[C@H](C(=O)C[C@@H]4[C@@]5(C)C=C(C#N)C(=O)C(C)(C)[C@@H]5CC[C@]43C)[C@@H]2C1 [Compound 63273, (4aR,6aR,6bR,8aS,12aS,12bR,14aR,14bR)-4,4,6a,6b,11,11,14b-heptamethyl-3,13-dioxo-8a-((2,2,2-trifluoroethylamino)methyl)-3,4,4a,5,6,6a,6b,7,8,8a,9,10,11,12,12a,12b,13,14,14a,14b-icosahydropicene-2-carbonitrile] | ~200 nM | –
3 | ~15 nM | – | CC1(C)CC[C@]2([C@@H]3CO3)CC[C@]3(C)[C@H](C(=O)C[C@@H]4[C@@]5(C)C=C(C#N)C(=O)C(C)(C)[C@@H]5CC[C@]43C)[C@@H]2C1 [Compound 63275, (4aR,6aR,6bR,8aS,12aS,12bR,14aR,14bR)-4,4,6a,6b,11,11,14b-heptamethyl-8a-((R)-oxiran-2-yl)-3,13-dioxo-3,4,4a,5,6,6a,6b,7,8,8a,9,10,11,12,12a,12b,13,14,14a,14b-icosahydropicene-2-carbonitrile] | > 200 nM | –
4 | ~50 nM | – | CC1(C)CC[C@]2(CN3C(=O)c4ccccc4C3=O)CC[C@]3(C)[C@H](C(=O)C[C@@H]4[C@@]5(C)C=C(C#N)C(=O)C(C)(C)[C@@H]5CC[C@]43C)[C@@H]2C1 [Compound 63276, (4aR,6aR,6bR,8aS,12aS,12bR,14aR,14bR)-8a-((1,3-dioxoisoindolin-2-yl)methyl)-4,4,6a,6b,11,11,14b-heptamethyl-3,13-dioxo-3,4,4a,5,6,6a,6b,7,8,8a,9,10,11,12,12a,12b,13,14,14a,14b-icosahydropicene-2-carbonitrile] | ~150 nM | –
5 | ~15 nM | – | CC1(C)CC[C@]2([C@H]3COCO3)CC[C@]3(C)[C@H](C(=O)C[C@@H]4[C@@]5(C)C=C(C#N)C(=O)C(C)(C)[C@@H]5CC[C@]43C)[C@@H]2C1 [Compound 63285, (4aR,6aR,6bR,8aS,12aS,12bR,14aR,14bR)-8a-((S)-1,3-dioxolan-4-yl)-4,4,6a,6b,11,11,14b-heptamethyl-3,13-dioxo-3,4,4a,5,6,6a,6b,7,8,8a,9,10,11,12,12a,12b, 13,14,14a,14b-icosahydropicene-2-carbonitrile] | > 200 nM | –
6 | – | ~25 nM | CC1(C)CC[C@]2(C[S+]([O-])c3ccccc3)CC[C@]3(C)[C@H](C(=O)C[C@@H]4[C@@]5(C)C=C(C#N)C(=O)C(C)(C)[C@@H]5CC[C@]43C)[C@@H]2C1 (stereo partly drawn) [Compound 63288, (4aR,6aR,6bR,8aS,12aS,12bR,14aR,14bR)-4,4,6a,6b,11,11,14b-heptamethyl-3,13-dioxo-8a-(phenylsulfinylmethyl)-3,4,4a,5,6,6a,6b,7,8,8a,9,10,11,12,12a,12b,13,14,14a,14b-icosahydropicene-2-carbonitrile] | – | ~200 nM
7 | ~9 nM | – | CC1(C)CC[C@]2(COC(=O)C(F)(F)F)CC[C@]3(C)[C@H](C(=O)C[C@@H]4[C@@]5(C)C=C(C#N)C(=O)C(C)(C)[C@@H]5CC[C@]43C)[C@@H]2C1 [Compound 63294, ((4aS,6aR,6bR,8aR,12aR,12bR,14aR,14bS)-11-cyano-2,2,6a,6b,9,9,12a-heptamethyl-10,14-dioxo-1,2,3,4,4a,5,6,6a,6b,7,8,8a,9,10,12a,12b,13,14,14a,14b-icosahydropicen-4a-yl)methyl 2,2,2-trifluoroacetate] | > 200 nM | –
